Test [1] has as its target RAC-alpha serine/threonine-protein kinase (Rattus norvegicus) (UniProt P47196). Nature of the test: Increase in Akt phosphorylation in glutamate-induced rat PC12 cells at 10 to 40 uM measured after 24 hrs by Western blot analysis.
The subject of test [2] is PC-12. Nature of the test: Neuroprotective activity against glutamate-induced apoptotic cell death in rat PC12 cells assessed as apoptotic neurons at 10 to 40 uM pretreated with compound followed by glutamate challenge measured after 24 hrs by Hoechst 33258 staining based assay (reference value: 65.5%). It is filed as functional.
Test [3] deals with PC-12. Nature of the test: Neuroprotective activity against glutamate-induced neuronal cell death in rat PC12 cells assessed as increase in cell viability pretreated for 2 hrs followed by glutamate challenge measured after 24 hrs by MTT assay. It counts as functional, cell-based. (In general: Tetrazolium assays rely on reduction of a dye to a coloured formazan, in cell work by metabolically active cells.)

For test [4], the system named is PC-12. The test is described as follows: Neuroprotective activity against glutamate-induced apoptotic cell death in rat PC12 cells assessed as decrease in caspase-3 level at 10 to 40 uM measured after 24 hrs. It is filed as functional, cell-based.

Our source for the Activity and EC50 values is ChEMBL document CHEMBL4145580, “Sesquiterpenoids from Chloranthus anhuiensis with Neuroprotective Effects in PC12 Cells” (J Nat Prod, 2018).

Active and inactive are the calls of the source. No cut-off for these calls is given here.

Chain of RAC-alpha serine/threonine-protein kinase (Rattus norvegicus) (P47196 whole entry): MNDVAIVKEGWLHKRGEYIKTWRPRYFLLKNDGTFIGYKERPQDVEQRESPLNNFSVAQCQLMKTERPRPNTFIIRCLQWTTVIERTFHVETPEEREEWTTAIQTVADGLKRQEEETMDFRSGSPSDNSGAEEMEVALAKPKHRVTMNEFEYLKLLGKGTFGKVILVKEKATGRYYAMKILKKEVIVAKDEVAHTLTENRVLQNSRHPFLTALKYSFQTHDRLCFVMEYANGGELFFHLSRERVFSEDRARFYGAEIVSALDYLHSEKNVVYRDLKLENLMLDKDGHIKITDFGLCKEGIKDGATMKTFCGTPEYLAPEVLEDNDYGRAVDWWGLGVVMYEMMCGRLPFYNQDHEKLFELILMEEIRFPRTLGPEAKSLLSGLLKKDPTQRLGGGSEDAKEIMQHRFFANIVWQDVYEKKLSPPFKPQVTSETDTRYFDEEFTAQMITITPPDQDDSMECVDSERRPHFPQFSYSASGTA

Regarding `CC(=O)OC[C@@H]1[C@H]2C[C@H]2[C@]2(C)C=C3OC(=O)C(CO)=C3C[C@@H]12`, the outcome (in test [1]; in the test on PC-12 [4]) was Active. Further, in the test on PC-12 [2], the Activity is 7.2 - 23.7%. In addition, in the test with PC-12 [3], the half-maximal effective concentration (EC50) (in general, the midpoint of the concentration-response curve) came to 3.3 µM.

As to `CC1=C2C(=O)[C@@](O)(C(C)C)CC[C@]2(C)CCC1`, the result in the test with PC-12 [3] was inactive. In the case of `C=C1CCC[C@]2(C)C=C3OC(=O)C(C)=C3C[C@@H]12`, in the test on PC-12 [3], the outcome was inactive. Still for that read-out and setting: next, `CC1=C(C[C@@H]2OC(=O)[C@@H](C)CC/C=C\2C)C(=O)OC1`: “inactive”; `Cc1coc2c1C(=O)[C@@H]1[C@@](C)(C2)[C@H](O)CC[C@@]1(C)O`: “inactive”; `C=C1CCC[C@]2(C)C=C3OC(=O)C(C)=C3[C@H](O)[C@@H]12`: “inactive”. Take `CC(=O)CCc1c(C)ccc2c1C(=O)OC2(C)C`: in the test on PC-12 [3], the EC50 was 93.1 µM.

As to `C=C1CCC[C@]2(C)C[C@]3(O)OC(=O)C(C)=C3C[C@@H]12` [ATRACTYLENOLIDE III], in the test with PC-12 [3], the outcome was inactive and the EC50 was 36.3 µM. For the compound `Cc1coc2c1C(=O)[C@H]1[C@@](C)(O)CCC(=O)[C@]1(C)C2`, the result in the test on PC-12 [3] was inactive. For `CC1=C2C[C@@H]3[C@](C)(CCC[C@]3(C)O)C[C@]2(O)OC1=O`, the result in the test on PC-12 [3] was inactive. Take `CC1=C2C(=O)c3c(C)coc3C(=O)[C@@]2(C)[C@@H](O)CC1`: the outcome in the test with PC-12 [3] was inactive. In the case of `C=C[C@]1(C)C[C@@H]2OC(=O)C(C)=C2C[C@H]1C(=C)C` [ISOGERMAFURENOLIDE], in the test with PC-12 [3], the concentration for a half-maximal effect (EC50) was determined as 24.3 µM.

Consider `CC1=C2C(=O)[C@@](O)(C(C)C)CC[C@@]2(C)CCC1=O`, for which the EC50 with PC-12 [3] is 132 µM. Still for that read-out and setting: in the case of `Cc1coc2c1C(=O)[C@H]1O[C@]1(C)CC[C@@H](O)[C@](C)(O)C2` it was 70.3 µM. As for `CC1=C2C[C@@]3(C)[C@H](C[C@@]2(O)OC1=O)C(=O)CC[C@@H]3C`, in the test on PC-12 [3], the outcome was inactive. In the case of `CC1=C2C(=O)c3c(C)coc3[C@@H](O)[C@]2(C)[C@@H](O)CC1`, the result in the test on PC-12 [3] was inactive. In the case of `C=C1[C@H]2C[C@H]2[C@]2(COC(C)=O)C[C@@H]3OC(=O)C(C)=C3C[C@@H]12`, the concentration giving a half-maximal response (EC50) in the test on PC-12 [3] turned out to be 89.5 µM.

`C=C1[C@H](O)CC[C@@]2(C)C[C@@]3(O)OC(=O)C(C)=C3C[C@H]12`: in the test with PC-12 [3], the result was inactive.

On to `Cc1coc2c1C[C@@H]1[C@](C)(CCC[C@@]1(C)O)C2`, for which the outcome in the test with PC-12 [3] was inactive.

For `Cc1coc2c1C(=O)[C@@H]1[C@@](C)(C2)C(=O)CC[C@@]1(C)O`, the EC50 in the test on PC-12 [3] worked out at 107 µM.

For `C=C1CCC[C@]2(C)C(=O)c3occ(C)c3C[C@@H]12`, in the test with PC-12 [3], the EC50 was determined as 119 µM. On to `Cc1coc2c1C(=O)[C@H]1[C@@H](C)CC[C@H](O)[C@]1(C)C2=O`, for which, in the test on PC-12 [3], the EC50 worked out at 51.4 µM.

For `CC1=C2C[C@@H]3[C@@](C)(C=C2OC1=O)CCC[C@@]3(C)O`, the outcome with PC-12 [3] was inactive. As to `CC(=O)OC[C@@H]1[C@H]2C[C@H]2[C@]2(C)C=C3OC(=O)C(C)=C3C[C@@H]12`, the outcome in the test on PC-12 [3] was inactive. Same read-out and setting: in the case of `Cc1coc2c1C(=O)[C@H]1[C@](C)(C2=O)[C@@H](O)CC[C@@]1(C)O` it was “inactive”; in that of `C=C(C)[C@@H]1CC[C@]2(C)C(=C(C)C(=O)C[C@H]2O)C1`, “inactive”. Consider `CC1=C2C[C@@]3(C)[C@H](C[C@H]2OC1=O)C(=O)CC[C@@H]3C`, for which the outcome with PC-12 [3] was inactive. In the case of `C=C1CC[C@@H]2C(=C)C[C@@]3(O)OC(=O)C(C)=C3[C@@]2(O)C1`, the concentration giving a half-maximal response (EC50) in the test with PC-12 [3] amounted to 15.2 µM. Consider `COCCOC(=O)C1=C(C)NC(C)=C(C(=O)OC(C)C)C1c1cccc([N+](=O)[O-])c1` (centres undefined) [NIMODIPINE], for which, in the test with PC-12 [3], the EC50 was determined as 97.3 µM. As for `CC1=C2C(=O)c3c(C)coc3C[C@@]2(C)C=CC1=O`, the EC50 in the test on PC-12 [3] turned out to be 106 µM.
